Source: patent publication US20260140098A1, “METHOD FOR TREATING PLASMA SAMPLE CONTAINING (7aS,2'S)-2-OXO-CLOPIDOGREL AND METHOD FOR DETERMINING THE SAME” (CHENGDU SHIBEIKANG BIOMEDICAL TECHNOLOGY CO., LTD., priority 2021, published 2026)
Read-outs that look alike come from different tables or passages of the source.

Assay: Stability of (7aS,2′S)-2-oxo-clopidogrel in plasma at −80° C., screening of reducing agent type (Example 5)
Format: in vitro ADME
Settings: for recovery at 0 day, 0.1 ng/mL / recovery at 10 day, 0.1 ng/mL / recovery at 30 day, 0.1 ng/mL / recovery at 60 day, 0.1 ng/mL: theoretical 0.1 ng/mL; for recovery at 0 day, 0.1 ng/mL / recovery at 0 day, 12 ng/mL: day 0, read-out: Recovery rate; for recovery at 10 day, 0.1 ng/mL / recovery at 10 day, 12 ng/mL: day 10, read-out: Recovery rate; for recovery at 30 day, 0.1 ng/mL / recovery at 30 day, 12 ng/mL: day 30, read-out: Recovery rate; for recovery at 60 day, 0.1 ng/mL / recovery at 60 day, 12 ng/mL: day 60, read-out: Recovery rate; for recovery at 0 day, 12 ng/mL / recovery at 10 day, 12 ng/mL / recovery at 30 day, 12 ng/mL / recovery at 60 day, 12 ng/mL: theoretical 12.0 ng/mL
Protocol: S2. Plasma sample pre-treatment: taking 100 μl of the plasma, adding 5 μl of an internal standard working solution and 300 μl of acetonitrile respectively; after vortex mixing, centrifuging at 2-8° C. and 10,000 r/min for 10 min, and collecting the supernatant for later use.
S3. LC-MS/MS analysis: injecting 10 μl of the supernatant prepared from step S2 for determination, where the liquid chromatography conditions are: • the chromatographic column is Kinetex® 1.7 μm C18 100 A 100×2.1 mm; the column temperature is 40° C.; the mobile phase is acetonitrile-0.2% aqueous formic acid solution with a flow rate of 0.2 ml/min; and a gradient elution is carried out as specified in the table below:
ESI ion source, positive ion detection in multiple reaction monitoring mode (MRM); the quantitatively analyzed ions (7aS,2′S)-2-oxo-clopidogrel: m/z 338.100→155.000, IS: m/z 341.100→158.000, a capillary voltage of 4.0 KV, a cone voltage of 25 V, a desolvation gas temperature of 400° C. and a source temperature of 150° C. The optimal collision energy is 20 eV.
Blank plasma was taken and different antioxidants (DTT, TCEP, ME) were added to prepare plasma containing an antioxidant at a concentration of 100 mg/ml. Subsequently, standard series solution of (7aS,2′S)-2-oxo-clopidogrel was added separately to prepare quality control samples with two concentrations of (7aS,2′S)-2-oxo-clopidogrel (0.1 and 12.0 ng/ml), 3 samples for each concentration. They were placed in a refrigerator at −80° C., and the plasma samples at different placing time points were taken to examine the stability by pre-treating the plasma samples according to the method of S2 of Example 1, followed by LC/MS/MS determination according to the method of S3.

[1] = blank plasma containing DTT 100 mg/ml, DTT 100 mg/ml
[2] = blank plasma containing ME 100 mg/ml, ME 100 mg/ml
[3] = blank plasma containing TCEP 100 mg/ml, TCEP 100 mg/ml

recovery at 0 day, 0.1 ng/mL [1]: 102%
recovery at 10 day, 0.1 ng/mL [1]: 103%
recovery at 30 day, 0.1 ng/mL [1]: 95.5%
recovery at 0 day, 0.1 ng/mL [2]: 102%
recovery at 10 day, 0.1 ng/mL [2]: 101%
recovery at 30 day, 0.1 ng/mL [2]: 91.5%
recovery at 60 day, 0.1 ng/mL [2]: 86.6%
recovery at 0 day, 12 ng/mL [2]: 101%
recovery at 10 day, 12 ng/mL [2]: 99.2%
recovery at 30 day, 12 ng/mL [2]: 96.5%
recovery at 60 day, 12 ng/mL [2]: 87.9%
recovery at 60 day, 0.1 ng/mL [3]: 101%
recovery at 0 day, 12 ng/mL [3]: 101%
recovery at 10 day, 12 ng/mL [3]: 100%
recovery at 30 day, 12 ng/mL [3]: 102%
recovery at 60 day, 12 ng/mL [3]: 101%
recovery at 60 day, 0.1 ng/mL (plasma, DTT 100 mg/ml): 89.9%
recovery at 0 day, 12 ng/mL (plasma, DTT 100 mg/ml): 101%
recovery at 10 day, 12 ng/mL (plasma, DTT 100 mg/ml): 100%
recovery at 30 day, 12 ng/mL (plasma, DTT 100 mg/ml): 98.9%
recovery at 60 day, 12 ng/mL (plasma, DTT 100 mg/ml): 92.4%
recovery at 0 day, 0.1 ng/mL (plasma, TCEP 100 mg/ml): 102%
recovery at 10 day, 0.1 ng/mL (plasma, TCEP 100 mg/ml): 105%
recovery at 30 day, 0.1 ng/mL (plasma, TCEP 100 mg/ml): 99.3%
SMILES: COC(=O)[C@H](c1ccccc1Cl)N1CC[C@@H]2SC(=O)C=C2C1 [(7aS,2′S)-2-oxo-clopidogrel, methyl(S)-2-(2-chlorophenyl)-2-((S)-2-oxo-2,6,7,7a-tetrahydrothieno[3,2-c]pyridin-5 (4H)-yl)acetate]
Stability of plasma samples (in words) (with TCEP compared with DTT and ME, 100 mg/ml): better than that of the plasma samples with DTT and ME
